Source: patent US8137977B2, “Lipidomic approaches to determining drug response phenotypes in cardiovascular disease” (Children's Hospital & Research Center at Oakland, priority 2007, dated 2012)

Experiment: Lipid profile changes (lipid classes and fatty acid composition) following simvastatin treatment, high vs low responders, PARC study
Type: in vivo, human
Conditions: 40 mg, 6 weeks vs baseline, high minus low, ANOVA
Experimental: We evaluated lipid profiles of 48 subjects selected from the Pharmacogenetics and Risk of Cardiovascular Disease (PARC) study. Subjects were selected from the larger study population of 944 participants (335 African-Americans and 609 whites), with a baseline total serum cholesterol level of 160 to 400 mg/dl. Participants were followed for a total of 6 weeks on simvastatin therapy (40 mg at bedtime). Twenty-four subjects drawn from the top 10% of responders and 24 age-, gender-, and race-matched subjects from the bottom 10% of responders. Response was defined as percent change in LDL cholesterol from baseline to end of treatment. Samples used in this study were collected at baseline and at 6 weeks of therapy.
Data Reporting. Lipids measured included, butyrobetaine, L-carnitine, cholesterol, cholesterol esters (CE), diglycerides (DG), free cholesterol (FC), free fatty acids (FA), lysophosphatidylcholine (LY), phosphatidylcholine (PC), phosphatidylethanolamine (PE) and triglycerides (TG). For CE, DG, FA, LY, PC, PE and TG lipid classes the following fatty acid components were quantified as a proportion of total fatty acids within the lipid class: 14:0, 15:0, 16:0, 18:0, 20:0, 22:0, 24:0, 14:1n5, 16:1n7, 18:1n7, 18:1n9, 20:1n9, 20:3n9, 22:1n9, 24:1n9, 18:2n6, 18:3n6, 20:2n6, 20:3n6, 20:4n6, 22:2n6, 22:4n6, 22:5n6, 18:3n3, 18:4n3, 20:3n3, 20:4n3, 20:5n3, 22:5n3, 22:6n3, 24:6n3, plasmalogen derivatives of 16:0, 18:0, 18:1n7 and 18:1n9, t16:1n7 t18:1n9 t18:2n6. The term “LC” indicates the value shown is the total concentration of the lipid class expressed as nMoles per gram of serum or plasma. Thus, the abbreviation PC18:2n6 indicates the percentage of plasma or serum phosphatidylcholine comprised of linoleic acid (18:2n6), and the term TGLC indicates the absolute amount of triglyceride present in plasma or serum.
Statistical Methods. Before undertaking analysis, the data was cleaned by outlier removal and removal of uninformative metabolites. Outliers were identifies as those observation more than three standard deviations from the mean. Metabolites were determined to be uninformative if over ⅔rds of the observations were below the limit of detection and the pattern of observations falling below this limit was not related to the outcome.
Results of t-tests were used in order to reduce the number of metabolites being modeled.
A simple one-way ANOVA was used to evaluate the difference in lipid changes between high and low responders. From this analysis, contrasts were calculated for the comparison of low to high responders. In addition, an ANCOVA model was used to evaluate the difference in response adjusting for baseline concentrations of the metabolite and the time the samples were run. The outcome was change from baseline to post-treatment, baseline concentration was the covariate, response (high=1, low=0) and group (first=0, second=1) were included as factors, and an interaction term between baseline and response was included.
The column labeled “estimate” is the difference between the change from pre to post in high and low responders (high minus low). The standard error, t-statistic, p-value, and 95% confidence bounds of this estimate are also included (Lower.CI and Upper.CI).

[1] = proportion of fatty acids in lysophosphatidylcholine
[2] = proportion of fatty acids in phosphatidylcholine
[3] = proportion of fatty acids in phosphatidylethanolamine
[4] = proportion of fatty acids in triglyceride

With `CCC(C)(C)C(=O)O[C@H]1C[C@@H](C)C=C2C=C[C@H](C)[C@H](CC[C@@H]3C[C@@H](O)CC(=O)O3)[C@H]21` [simvastatin] the “Estimate, difference between change in high and low responders: DGLC (total diglyceride)” value was 2.4502 nMoles per gram of serum or plasma, the “Estimate, difference between change in high and low responders: LY14.1n5” value [1] was 0.0135 percentage and the “Estimate, difference between change in high and low responders: LY16.0” value [1] was −1.1505 percentage. The “Estimate, difference between change in high and low responders: LY18.0” value [1] was −1.1443 percentage, the “Estimate, difference between change in high and low responders: LY18.1n9” value [1] was 0.3099 percentage and the “Estimate, difference between change in high and low responders: LY18.3n6” value [1] was 0.0774 percentage. For the same molecule, the “Estimate, difference between change in high and low responders: LY20.4n3” value [1] was −0.019 percentage, the “Estimate, difference between change in high and low responders: LY20.4n6” value [1] was 0.1269 percentage and the “Estimate, difference between change in high and low responders: LY20.5n3” value [1] was 0.0994 percentage. The “Estimate, difference between change in high and low responders: PC18.2n6” value [2] was −1.5254 percentage, the “Estimate, difference between change in high and low responders: PC18.3n3” value [2] was −0.0498 percentage and the “Estimate, difference between change in high and low responders: PC20.3n9” value [2] was −0.0509 percentage. The “Estimate, difference between change in high and low responders: PC20.4n6” value [2] was 1.1779 percentage, the “Estimate, difference between change in high and low responders: PC22.6n3” value [2] was 0.4153 percentage and the “Estimate, difference between change in high and low responders: PE14.1n5” value [3] was 0.0551 percentage. The “Estimate, difference between change in high and low responders: PE18.0” value [3] was −2.0267 percentage, the “Estimate, difference between change in high and low responders: PE18.2n6” value [3] was −1.036 percentage and the “Estimate, difference between change in high and low responders: PE20.0” value [3] was 0.0189 percentage. For the same molecule, the “Estimate, difference between change in high and low responders: PE20.3n6” value [3] was −0.4196 percentage, the “Estimate, difference between change in high and low responders: PE20.4n3” value [3] was −0.0102 percentage and the “Estimate, difference between change in high and low responders: PE22.5n3” value [3] was −0.1266 percentage. For the same molecule, the “Estimate, difference between change in high and low responders: TG18.3n3” value [4] was −0.0787 percentage, the “Estimate, difference between change in high and low responders: TG18.3n6” value [4] was 0.1008 percentage and the “Estimate, difference between change in high and low responders: TG18.4n3” value [4] was 0.0378 percentage. The “Estimate, difference between change in high and low responders: TG20.3n9” value [4] was −0.0052 percentage, the “Estimate, difference between change in high and low responders: TG20.4n3” value [4] was −0.0056 percentage and the “Estimate, difference between change in high and low responders: TG20.4n6” value [4] was 0.1005 percentage. For the same molecule, the “Estimate, difference between change in high and low responders: TG22.0” value [4] was 0.0184 percentage, the “Estimate, difference between change in high and low responders: TG22.4n6” value [4] was −0.0138 percentage and the “Estimate, difference between change in high and low responders: TG22.5n6” value [4] was −0.0165 percentage. For the same molecule, the “Estimate, difference between change in high and low responders: FA20.0” value (proportion of free fatty acids) was 0.0159 percentage, the “Estimate, difference between change in high and low responders: FA20.1n9” value (proportion of free fatty acids) was 0.0823 percentage and the “Estimate, difference between change in high and low responders: FA22.1n9” value (proportion of free fatty acids) was −0.0615 percentage. The “Estimate, difference between change in high and low responders: FA22.2n6” value (proportion of free fatty acids) was −0.0088 percentage.
